Measured values: article PMC11217338 (Frontiers in Endocrinology, 2024)

Biological target: T1, rat PXR (rPXR) (Rattus norvegicus, UniProt Q9R1A7)
T1 construct: gene Nr1i2
T1 sequence (Q9R1A7 143-431 limits assumed): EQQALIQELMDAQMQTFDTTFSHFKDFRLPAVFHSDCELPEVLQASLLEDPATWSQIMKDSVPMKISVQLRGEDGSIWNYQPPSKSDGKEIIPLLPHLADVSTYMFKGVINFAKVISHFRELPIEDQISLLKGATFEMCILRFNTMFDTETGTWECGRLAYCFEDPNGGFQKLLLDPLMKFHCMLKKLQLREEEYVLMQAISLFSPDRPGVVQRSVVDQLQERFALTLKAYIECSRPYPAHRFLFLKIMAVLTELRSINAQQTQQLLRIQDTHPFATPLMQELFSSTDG
Assay: GAL4-LBD luciferase reporter assay in HepG2 cells, […] CBD
Assay type: cell-based

## C=C(C)[C@@H]1CCC(C)=C[C@H]1c1c(O)cc(CCCCC)cc1O [CBD, Cannabidiol]
  GAL4-LBD luciferase reporter assay in HepG2 cells, 10 μM CBD: Except for PXRs, CBD had little effect on activation of the other tested nuclear receptors
